In patent US6355799B1, “Substituted benzene compounds, process for their preparation, and herbicidal and defoliant compositions containing them” (ISK Americas Incorporated, priority 1997, dated 2002):

What was measured:
Type in all cases: in vivo
[1] = test system: field corn (Zea mays L., var. Dekalb 535, CORN); test: Pre-emerge test, crop safety; conditions: pre-emerge, 14 days after application; for phytotoxicity rating CORN (crop damage): scale 0-100; for phytotoxicity rating CORN: rating scale 0-100
Procedure, shortened: (§1)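 Compounds in acetone were track-sprayed at 187 l/ha, 15–1000 g ai/ha, onto sandy loam pots. Pre-emerge seeds were sown one day before spraying, with surface watering afterwards. Post-emerge plants were at the 2–3 leaf stage and sprayed with 0.25% v/v non-ionic surfactant. Injury was rated 0–100 at 14 days.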

[2] = test system: upland rice (Oryza sp., var. Tebonnet, RICE); test: Pre-emerge test, crop safety; conditions: pre-emerge, 14 days after application; for phytotoxicity rating RICE (crop damage): scale 0-100; for phytotoxicity rating RICE: rating scale 0-100
Procedure, shortened: as §1

[3] = test system: velvetleaf (Abutilon theophrasti, ABUTH); test: Post-emerge test, greenhouse herbicide activity screening; conditions: post-emerge, 14 days after application, rating scale 0-100
Procedure, shortened: (§2)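 Compounds in acetone were track-sprayed at 15-1000 g ai/ha (187 l/ha) on sandy loam pots: pre-emerge one day after seeding, post-emerge at 2-3 leaf stage with 0.25% v/v non-ionic surfactant. Phytotoxicity was rated 14 days later on a 0 (no damage) to 100 (complete death) scale.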

[4] = test system: large crabgrass (Digitaria sanguinalis, DIGSA); test: as above; conditions: post-emerge, 14 days after application, rating scale 0-100
Procedure, shortened: as §2

[5] = test system: common ragweed (Ambrosia artemisizfolia L., AMBEL); test: as above; conditions: post-emerge, 14 days after application, rating scale 0-100
Procedure, shortened: as §2

[6] = test system: lambsquarters (Chenopodium album, CHEAL); test: as above; conditions: post-emerge, 14 days after application, rating scale 0-100
Procedure, shortened: as §2

[7] = test system: redroot pigweed (Amaranthus retroflexus, AMARE); test: as above; conditions: post-emerge, 14 days after application
Procedure, shortened: as §2

[8] = test system: green foxtail (Setaria viridis, SETVI); test: as above; conditions: post-emerge, 14 days after application, rating scale 0-100
Procedure, shortened: as §2

[9] = test system: ivyleaf morningglory (Ipomoea hederacea, IPOHE); test: as above; conditions: post-emerge, 14 days after application, rating scale 0-100
Procedure, shortened: as §2

[10] = test system: barnyardgrass (Echinochloa crus-galli, ECHCG); test: as above; conditions: post-emerge, 14 days after application, rating scale 0-100
Procedure, shortened: as §2

[11] = test system: sicklepod (Cassia obtusifolia, CASOB); test: as above; conditions: post-emerge, 14 days after application, rating scale 0-100
Procedure, shortened: as §2

[12] = test system: field corn (Zea mays L., var. Dekalb 535, CORN); test: Post-emerge test, crop safety; conditions: post-emerge, 14 days after application, rating scale 0-100
Procedure, shortened: (§3)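 Rating: 0–100 visual injury, 14 DAA. Application: acetone, 187 l/ha, 15–1000 g ai/ha, flat-fan track sprayer with nozzle 40–45 cm above soil or canopy. Post-emerge runs used 0.25% v/v surfactant on 2–3 leaf plants.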

[13] = test system: upland rice (Oryza sp., var. Tebonnet, RICE); test: Post-emerge test, crop safety; conditions: post-emerge, 14 days after application, rating scale 0-100
Procedure, shortened: as §3

[14] = test system: velvetleaf (Abutilon theophrasti, ABUTH); test: Pre-emerge test, greenhouse herbicide activity screening; conditions: pre-emerge, 14 days after application
Procedure, shortened: (§4)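 Compounds in acetone were track-sprayed at 15–1000 g ai/ha: pre-emergence onto soil sown the previous day, then top-watered to incorporate and later bottom-watered; post-emergence onto 2–3 leaf plants with 0.25% v/v surfactant, bottom-watered only. Ratings on a 0–100 phytotoxicity scale were taken at day 14.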

[15] = test system: large crabgrass (Digitaria sanguinalis, DIGSA); test: as above; conditions: pre-emerge, 14 days after application
Procedure, shortened: as §4

[16] = test system: common ragweed (Ambrosia artemisizfolia L., AMBEL); test: as above; conditions: pre-emerge, 14 days after application
Procedure, shortened: as §4

[17] = test system: lambsquarters (Chenopodium album, CHEAL); test: as above; conditions: pre-emerge, 14 days after application
Procedure, shortened: as §4

[18] = test system: green foxtail (Setaria viridis, SETVI); test: as above; conditions: pre-emerge, 14 days after application
Procedure, shortened: as §4

[19] = test system: ivyleaf morningglory (Ipomoea hederacea, IPOHE); test: as above; conditions: pre-emerge, 14 days after application
Procedure, shortened: as §4

[20] = test system: johnsongrass (Sorghum halepense, SORHA); test: as above; conditions: pre-emerge, 14 days after application
Procedure, shortened: as §4

[21] = test system: barnyardgrass (Echinochloa crus-galli, ECHCG); test: as above; conditions: pre-emerge, 14 days after application
Procedure, shortened: as §4

[22] = test system: sicklepod (Cassia obtusifolia, CASOB); test: as above; conditions: pre-emerge, 14 days after application
Procedure, shortened: as §4

[23] = test system: redroot pigweed (Amaranthus retroflexus, AMARE); test: as above; conditions: pre-emerge, 14 days after application
Procedure, shortened: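 Sandy loam pots; pre-emerge: sown 1 d pre-spray, surface-watered after, then bottom-watered. Post-emerge: sown 8–21 d before, 2–3 leaf stage, + 0.25% v/v NIS, bottom-watered. Acetone, 187 l/ha track spray, 15–1000 g ai/ha. 0–100 injury score, day 14.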

[24] = 250 g ai/ha, rating scale 0-100

Structure (SMILES): Cn1c(C(F)(F)F)cc(=O)n(-c2c(F)cc(Cl)cc2NC2CC2)c1=O [2-147]
- phytotoxicity rating CORN (crop damage) ([1]; 63 g ai/ha): 100
- phytotoxicity rating CORN (crop damage) ([1]; 250 g ai/ha): 100
- phytotoxicity rating RICE (crop damage) ([2]; 63 g ai/ha): 99
- phytotoxicity rating RICE (crop damage) ([2]; 250 g ai/ha): 100
- ABUTH phytotoxicity rating ([3]; 63 g ai/ha): 100
- ABUTH phytotoxicity rating ([3]; 250 g ai/ha): 100
- DIGSA phytotoxicity rating ([4]; 63 g ai/ha): 20
- DIGSA phytotoxicity rating ([4]; 250 g ai/ha): 50
- AMBEL phytotoxicity rating ([5]; 63 g ai/ha): 95
- AMBEL phytotoxicity rating ([5]; 250 g ai/ha): 100
- CHEAL phytotoxicity rating ([6]; 63 g ai/ha): 100
- CHEAL phytotoxicity rating ([6]; 250 g ai/ha): 100
- AMARE phytotoxicity rating ([7]; 63 g ai/ha, rating scale 0-100): 100
- AMARE phytotoxicity rating [7, 24]: 100
- SETVI phytotoxicity rating ([8]; 63 g ai/ha): 20
- SETVI phytotoxicity rating ([8]; 250 g ai/ha): 40
- IPOHE phytotoxicity rating ([9]; 63 g ai/ha): 100
- IPOHE phytotoxicity rating ([9]; 250 g ai/ha): 100
- ECHCG phytotoxicity rating ([10]; 63 g ai/ha): 10
- ECHCG phytotoxicity rating ([10]; 250 g ai/ha): 50
- CASOB phytotoxicity rating ([11]; 63 g ai/ha): 80
- CASOB phytotoxicity rating ([11]; 250 g ai/ha): 95
- CORN phytotoxicity rating (crop damage) ([12]; 63 g ai/ha): 15
- CORN phytotoxicity rating (crop damage) ([12]; 250 g ai/ha): 90
- RICE phytotoxicity rating (crop damage) ([13]; 63 g ai/ha): 50
- RICE phytotoxicity rating (crop damage) ([13]; 250 g ai/ha): 75
- phytotoxicity rating ABUTH ([14]; 63 g ai/ha, scale 0-100): 100
- phytotoxicity rating ABUTH ([14]; 250 g ai/ha, scale 0-100): 100
- phytotoxicity rating DIGSA ([15]; 63 g ai/ha, scale 0-100): 90
- phytotoxicity rating DIGSA ([15]; 250 g ai/ha, scale 0-100): 100
- phytotoxicity rating AMBEL ([16]; 63 g ai/ha, scale 0-100): 80
- phytotoxicity rating AMBEL ([16]; 250 g ai/ha, scale 0-100): 100
- phytotoxicity rating CHEAL ([17]; 63 g ai/ha, scale 0-100): 100
- phytotoxicity rating CHEAL ([17]; 250 g ai/ha, scale 0-100): 100
- phytotoxicity rating SETVI ([18]; 63 g ai/ha, scale 0-100): 100
- phytotoxicity rating SETVI ([18]; 250 g ai/ha, scale 0-100): 100
- phytotoxicity rating IPOHE ([19]; 63 g ai/ha, scale 0-100): 80
- phytotoxicity rating IPOHE ([19]; 250 g ai/ha, scale 0-100): 100
- phytotoxicity rating SORHA ([20]; 63 g ai/ha, scale 0-100): 90
- phytotoxicity rating SORHA ([20]; 250 g ai/ha, scale 0-100): 100
- phytotoxicity rating ECHCG ([21]; 63 g ai/ha, scale 0-100): 90
- phytotoxicity rating ECHCG ([21]; 250 g ai/ha, scale 0-100): 100
- phytotoxicity rating CASOB ([22]; 63 g ai/ha, scale 0-100): 40
- phytotoxicity rating CASOB ([22]; 250 g ai/ha, scale 0-100): 100
- phytotoxicity rating AMARE ([23]; 63 g ai/ha, scale 0-100): 100
- phytotoxicity rating AMARE ([23]; 250 g ai/ha, scale 0-100): 100

Structure (SMILES): CCOc1c(Cl)cc(F)c(-n2c(=O)cc(C(F)(F)F)n(C)c2=O)c1Cl [14-62]
- phytotoxicity rating CORN ([1]; 63 g ai/ha): 0
- phytotoxicity rating CORN ([1]; 250 g ai/ha): 5
- phytotoxicity rating RICE ([2]; 63 g ai/ha): 0
- phytotoxicity rating RICE ([2]; 250 g ai/ha): 15
- Post-emerge Herbicidal Activity ABUTH (phytotoxicity rating) ([3]; 63 g ai/ha): 40
- Post-emerge Herbicidal Activity ABUTH (phytotoxicity rating) ([3]; 250 g ai/ha): 60
- Post-emerge Herbicidal Activity DIGSA (phytotoxicity rating) ([4]; 63 g ai/ha): 0
- Post-emerge Herbicidal Activity DIGSA (phytotoxicity rating) ([4]; 250 g ai/ha): 0
- Post-emerge Herbicidal Activity AMBEL (phytotoxicity rating) ([5]; 63 g ai/ha): 40
- Post-emerge Herbicidal Activity AMBEL (phytotoxicity rating) ([5]; 250 g ai/ha): 30
- Post-emerge Herbicidal Activity CHEAL (phytotoxicity rating) ([6]; 63 g ai/ha): 10
- Post-emerge Herbicidal Activity CHEAL (phytotoxicity rating) ([6]; 250 g ai/ha): 20
- Post-emerge Herbicidal Activity AMARE (phytotoxicity rating) ([7]; 63 g ai/ha, rating scale 0-100 (0 no damage, 100 complete death)): 30
- Post-emerge Herbicidal Activity AMARE (phytotoxicity rating) [7, 24]: 50
- Post-emerge Herbicidal Activity SETVI (phytotoxicity rating) ([8]; 63 g ai/ha): 0
- Post-emerge Herbicidal Activity SETVI (phytotoxicity rating) ([8]; 250 g ai/ha): 0
- Post-emerge Herbicidal Activity IPOHE (phytotoxicity rating) ([9]; 63 g ai/ha): 30
- Post-emerge Herbicidal Activity IPOHE (phytotoxicity rating) ([9]; 250 g ai/ha): 50
- Post-emerge Herbicidal Activity ECHCG (phytotoxicity rating) ([10]; 63 g ai/ha): 0
- Post-emerge Herbicidal Activity ECHCG (phytotoxicity rating) ([10]; 250 g ai/ha): 0
- Post-emerge Herbicidal Activity CASOB (phytotoxicity rating) ([11]; 63 g ai/ha): 0
- Post-emerge Herbicidal Activity CASOB (phytotoxicity rating) ([11]; 250 g ai/ha): 30
- Post-emerge Herbicidal Activity CORN (crop damage rating) ([12]; 63 g ai/ha): 5
- Post-emerge Herbicidal Activity CORN (crop damage rating) ([12]; 250 g ai/ha): 5
- Post-emerge Herbicidal Activity RICE (crop damage rating) ([13]; 63 g ai/ha): 0
- Post-emerge Herbicidal Activity RICE (crop damage rating) ([13]; 250 g ai/ha): 5
- phytotoxicity rating ABUTH ([14]; 63 g ai/ha, rating scale 0-100): 15
- phytotoxicity rating ABUTH [14, 24]: 95
- phytotoxicity rating DIGSA ([15]; 63 g ai/ha, rating scale 0-100): 0
- phytotoxicity rating DIGSA [15, 24]: 50
- phytotoxicity rating AMBEL ([16]; 63 g ai/ha, rating scale 0-100): 0
- phytotoxicity rating AMBEL [16, 24]: 30
- phytotoxicity rating CHEAL ([17]; 63 g ai/ha, rating scale 0-100): 20
- phytotoxicity rating CHEAL [17, 24]: 80
- phytotoxicity rating SETVI ([18]; 63 g ai/ha, rating scale 0-100): 0
- phytotoxicity rating SETVI [18, 24]: 60
- phytotoxicity rating IPOHE ([19]; 63 g ai/ha, rating scale 0-100): 0
- phytotoxicity rating IPOHE [19, 24]: 0
- phytotoxicity rating SORHA ([20]; 63 g ai/ha, rating scale 0-100): 0
- phytotoxicity rating SORHA [20, 24]: 60
- phytotoxicity rating ECHCG ([21]; 63 g ai/ha, rating scale 0-100): 0
- phytotoxicity rating ECHCG [21, 24]: 20
- phytotoxicity rating CASOB ([22]; 63 g ai/ha, rating scale 0-100): 0
- phytotoxicity rating CASOB [22, 24]: 0
- phytotoxicity rating AMARE ([23]; 63 g ai/ha, rating scale 0-100): 40
- phytotoxicity rating AMARE [23, 24]: 100
